This note sets out measurements from patent US20250171420A1 (Monte Rosa Therapeutics, Inc., priority 2022, published 2025).

The structures appear in SMILES notation.

T1 sequence (P48729 whole entry): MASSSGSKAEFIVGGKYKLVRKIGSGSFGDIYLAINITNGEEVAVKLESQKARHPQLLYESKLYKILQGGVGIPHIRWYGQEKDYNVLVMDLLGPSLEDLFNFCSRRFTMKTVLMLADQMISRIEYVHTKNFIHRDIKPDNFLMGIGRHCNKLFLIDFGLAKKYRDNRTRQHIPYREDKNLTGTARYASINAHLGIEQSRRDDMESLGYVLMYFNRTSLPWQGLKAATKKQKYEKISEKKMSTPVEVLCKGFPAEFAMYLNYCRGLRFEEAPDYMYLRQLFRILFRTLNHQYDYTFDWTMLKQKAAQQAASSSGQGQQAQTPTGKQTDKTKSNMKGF
T1 sequence (Q96SW2 whole entry, further chain): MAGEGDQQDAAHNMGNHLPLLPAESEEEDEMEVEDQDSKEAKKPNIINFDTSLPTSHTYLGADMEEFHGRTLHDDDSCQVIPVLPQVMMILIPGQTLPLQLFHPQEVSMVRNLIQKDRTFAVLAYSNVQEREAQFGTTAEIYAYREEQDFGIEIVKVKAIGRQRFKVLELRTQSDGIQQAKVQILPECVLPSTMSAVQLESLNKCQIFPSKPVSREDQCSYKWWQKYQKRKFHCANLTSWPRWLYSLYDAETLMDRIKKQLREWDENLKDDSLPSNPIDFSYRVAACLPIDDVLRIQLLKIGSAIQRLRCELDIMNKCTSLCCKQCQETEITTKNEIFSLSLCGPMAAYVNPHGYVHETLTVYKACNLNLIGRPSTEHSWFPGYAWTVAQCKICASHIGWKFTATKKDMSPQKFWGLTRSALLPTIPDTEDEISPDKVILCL
T1 sequence (Q16531 2-1140 partner limits assumed): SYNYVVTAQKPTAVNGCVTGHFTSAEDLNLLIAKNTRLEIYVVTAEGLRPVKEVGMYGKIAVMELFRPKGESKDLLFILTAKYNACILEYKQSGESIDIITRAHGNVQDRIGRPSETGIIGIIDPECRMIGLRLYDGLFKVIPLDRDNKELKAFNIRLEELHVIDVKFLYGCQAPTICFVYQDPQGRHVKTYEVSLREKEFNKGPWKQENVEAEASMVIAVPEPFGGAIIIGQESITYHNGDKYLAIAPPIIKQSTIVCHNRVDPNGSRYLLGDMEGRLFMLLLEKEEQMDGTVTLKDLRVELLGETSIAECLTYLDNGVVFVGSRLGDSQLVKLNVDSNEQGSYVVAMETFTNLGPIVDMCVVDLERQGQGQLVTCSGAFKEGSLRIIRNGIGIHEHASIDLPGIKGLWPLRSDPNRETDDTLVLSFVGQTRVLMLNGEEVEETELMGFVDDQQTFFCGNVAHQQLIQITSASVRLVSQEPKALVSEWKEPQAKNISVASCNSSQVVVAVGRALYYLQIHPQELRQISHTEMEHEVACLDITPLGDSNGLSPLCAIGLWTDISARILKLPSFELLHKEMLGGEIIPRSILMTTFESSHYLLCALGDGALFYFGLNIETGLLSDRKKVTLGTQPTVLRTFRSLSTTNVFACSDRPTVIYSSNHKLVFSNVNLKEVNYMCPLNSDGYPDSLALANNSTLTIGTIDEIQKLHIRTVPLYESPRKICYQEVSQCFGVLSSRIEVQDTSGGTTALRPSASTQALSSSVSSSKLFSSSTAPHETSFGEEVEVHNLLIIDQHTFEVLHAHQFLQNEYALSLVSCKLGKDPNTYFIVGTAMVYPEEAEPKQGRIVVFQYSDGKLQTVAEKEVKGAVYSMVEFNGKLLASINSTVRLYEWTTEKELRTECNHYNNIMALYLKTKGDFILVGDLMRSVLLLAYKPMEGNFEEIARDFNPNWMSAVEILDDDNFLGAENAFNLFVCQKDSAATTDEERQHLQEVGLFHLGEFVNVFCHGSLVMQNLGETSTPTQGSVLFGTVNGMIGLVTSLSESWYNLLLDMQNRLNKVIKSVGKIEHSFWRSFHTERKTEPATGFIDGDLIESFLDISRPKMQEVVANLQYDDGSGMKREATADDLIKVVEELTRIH

The experiment has as its target T1, CK1α (Homo sapiens, UniProt P48729).
T1 construct: HEK293 clonal lines with CRISPR KI HiBiT tag on CSNK1A1
Briefly: CK1α NanoBit Assay (HiBiT-tagged CSNK1A1, HEK293 clonal lines). In kind it is cell-based. The following applies: HEK293 HiBiT-CSNK1A1/LgBiT cells, 24 h incubation. As to the method:
HEK293 clonal lines with CRISPR KI HiBiT tag on CSNK1A1 and stably expressing LgBiT protein were obtained from Promega (Madison, WI). […] Cells were incubated at 37° C., 5% CO2 for 24 hours and then signal was read on a Pherastar FSX using “LUM plus” optic module.
Data analysis was performed in Scinamic (Scinamic, Cambridge, MA). Luminescence response (R) was calculated by the formula: response=100*(S−N)/(P−N) where S is the signal of the well, N and P the mean negative and positive control values respectively of the same plate.
DC50 data are reported in Table 2 for compounds in Table 1. In Table 2 below, According to the code, A represents a DC50 value of ≤0.1 μM, B represents a DC50 value>0.1 μM and ≤1 μM, C represents an DC50 value>1 μM.
On the technique in general: The HiBiT peptide binds its large partner to form an active luciferase.
In the case of `O=C1CCC(N2Cc3cc(NC(=O)N4C[C@@H]5[C@H]6CC[C@H](C6)[C@@H]5C4)ccc3C2=O)C(=O)N1` (stereo partly drawn) [Compound 220], the DC50 was below 0.1 µM. The result for `O=C1CCC(N2Cc3cc(NC(=O)N4Cc5ccccc5C(F)(F)C4)ccc3C2=O)C(=O)N1` (stereo not drawn) [Compound 204] reads below 0.1 µM. The result for `O=C1CCC(N2Cc3cc(NC(=O)N4CCCc5cccc(OC(F)F)c54)ccc3C2=O)C(=O)N1` (stereo not drawn) [Compound 159] reads 0.1 to 1 µM; that for `O=C1CCC(N2Cc3cc(NC(=O)N4CCC5(CC5)C4)ccc3C2=O)C(=O)N1` (stereo not drawn) [Compound 274], 0.1 to 1 µM.

Turning to `O=C1CCC(N2Cc3cc(NC(=O)N4CCCC4c4ccccn4)ccc3C2=O)C(=O)N1` (stereo not drawn) [Compound 270], the DC50 was 0.1 to 1 µM. The result for `O=C1CCC(N2Cc3cc(NC(=O)N4CCC(O)CC4)ccc3C2=O)C(=O)N1` (stereo not drawn) [Compound 251] reads above 1 µM; that for `O=C1CCC(N2Cc3cc(NC(=O)N4CCc5c(F)cccc5C4)ccc3C2=O)C(=O)N1` (stereo not drawn) [Compound 184], below 0.1 µM; that for `O=C1CCC(N2Cc3cc(NC(=O)N4Cc5ccccc5C(n5cccn5)C4)ccc3C2=O)C(=O)N1` (stereo not drawn) [Compound 206], 0.1 to 1 µM. `O=C1CCC(N2Cc3cc(NC(=O)N4CCc5cc(F)ccc5C4)ccc3C2=O)C(=O)N1` (stereo not drawn) [Compound 193] returned a DC50 below 0.1 µM.

For the molecule `O=C1CCC(N2Cc3cc(NC(=O)N4CCN(c5ncccn5)CC4)ccc3C2=O)C(=O)N1` (stereo not drawn) [Compound 272], the DC50 was in the range of 0.1 to 1 µM. On to `C[C@@H]1c2ccccc2CN1C(=O)Nc1ccc2c(c1)CN(C1CCC(=O)NC1=O)C2=O` (stereo partly drawn) [Compound 170], for which the DC50 was below 0.1 µM.

As for `Cn1cc(C2CCN(C(=O)Nc3ccc4c(c3)CN(C3CCC(=O)NC3=O)C4=O)C2)cn1` (stereo not drawn) [Compound 222], the DC50 is above 1 µM. The result for `Cc1cc2c(cn1)CCN2C(=O)Nc1ccc2c(c1)CN(C1CCC(=O)NC1=O)C2=O` (stereo not drawn) [Compound 113] reads above 1 µM; that for `O=C1CCC(N2Cc3cc(NC(=O)N4CCN(c5nccs5)CC4)ccc3C2=O)C(=O)N1` (stereo not drawn) [Compound 242], above 1 µM. Turning to `O=C1CCC(N2Cc3cc(NC(=O)N4CCC5CC54)ccc3C2=O)C(=O)N1` (stereo not drawn) [Compound 221], the DC50 fell in the range of 0.1 to 1 µM.

For the molecule `O=C1CCC(N2Cc3cc(NC(=O)N4CCCC4c4ccccc4)ccc3C2=O)C(=O)N1` (stereo not drawn) [Compound 264], the DC50 is below 0.1 µM. For the molecule `CC1CCc2ccccc2N1C(=O)Nc1ccc2c(c1)CN(C1CCC(=O)NC1=O)C2=O` (stereo not drawn) [Compound 120], the DC50 lay in the range of 0.1 to 1 µM.

`CC1Cc2ccccc2C(C)N1C(=O)Nc1ccc2c(c1)CN(C1CCC(=O)NC1=O)C2=O` (stereo not drawn) [Compound 166] had a DC50 below 0.1 µM.

Take `O=C1CCC(N2Cc3cc(NC(=O)N4CCC(c5ccc(F)cn5)C4)ccc3C2=O)C(=O)N1` (stereo not drawn) [Compound 239]: the DC50 lay in the range of 0.1 to 1 µM.

`Cn1ccc(C2CCCN(C(=O)Nc3ccc4c(c3)CN(C3CCC(=O)NC3=O)C4=O)C2)n1` (stereo not drawn) [Compound 267] came in with a DC50 of 0.1 to 1 µM. `O=C1CC[C@H](N2Cc3cc(NC(=O)N4c5ccccc5C[C@H]4C(F)(F)F)ccc3C2=O)C(=O)N1` (single isomer, unassigned) [Compound 361] had a DC50 below 0.1 µM. The result for `Cc1cccc(C2CN(C(=O)Nc3ccc4c(c3)CN(C3CCC(=O)NC3=O)C4=O)C2)c1` (stereo not drawn) [Compound 226] reads below 0.1 µM; that for `O=C1CCC(N2Cc3cc(NC(=O)N4CCN(c5cccnc5)CC4)ccc3C2=O)C(=O)N1` (stereo not drawn) [Compound 249], above 1 µM; that for `CC(C)(C)c1ccc2c(c1)CN(C(=O)Nc1ccc3c(c1)CN(C1CCC(=O)NC1=O)C3=O)CC2` (stereo not drawn) [Compound 179], below 0.1 µM. As for `Cc1ccc2c(c1)N(C(=O)Nc1ccc3c(c1)CN(C1CCC(=O)NC1=O)C3=O)CCC2` (stereo not drawn) [Compound 149], the DC50 lay in the range of 0.1 to 1 µM. The result for `O=C1CCC(N2Cc3cc(NC(=O)N4Cc5ccccc5CC4c4ccccc4)ccc3C2=O)C(=O)N1` (stereo not drawn) [Compound 215] reads below 0.1 µM; that for `O=C1CCC(N2Cc3cc(NC(=O)N4CC(c5cccc(C(F)(F)F)c5)C4)ccc3C2=O)C(=O)N1` (stereo not drawn) [Compound 241], 0.1 to 1 µM.
